Laboratory results from patent US20210069295A1, “GALECTINS CONTROL MTOR IN RESPONSE TO ENDOMEMBRANE DAMAGE AND PROVIDE A MECHANISM AND TARGET FOR THE TREATMENT OF AUTOPHAGY-RELATED DISEASES” (STC. UNM, priority 2017, published 2021).
Peptide text beside a SMILES is read from it.

Legend:
mTOR = mTOR activity in human peripheral blood monocyte derived macrophages; format: cell-based; details: 100 μM GPN, 1 h
Method: (A) Dose-response analysis of mTOR activity in HEK293T cells treated with glycyl-L-phenylalanine 2-naphththylamide (GPN) in full medium for 1 h. mTOR activity was monitored by inununoblotting analysis of S6K1 (T389) and ULK1 (S757) phosphorylation (phosphorylated S6K (T389) and ULK1 (S757) relative to total S6K and ULK1, respectively). (B) Analysis of mTOR activity (as in A) after GPN washout. HEK293T cells were treated with 100 μM GPN for 1 h followed by 1 h washout in full medium. Data, means±SEM (n=3), **p<0.01, ANOVA. (C) Analysis of mTOR activity (as in A) in HEK293T cells treated with increasing doses of silica in full medium for 1 h. (D) HEK293T cells were treated with lysosomal damaging agents (LLOMe, Leu-Leu-OMe) for 1 h in full medium and status of acidified organelles assessed by quantifying LysoTracker Red DND-99 puncta using automated high-content imaging and analysis (HC). […] Data, means±SEM, n≥3 independent experiments (500 primary objects counted per well; ≥5 wells/sample per each experiment), **p<0.01, ANOVA. […] Human peripheral blood monocyte derived macrophages were treated with 100 μM GPN in full medium or starved in EBSS for 1 h, and mTOR activity measured as in A. None-treated cells were as control (Ctrl). […] Data, means±SEM, n≥3 independent experiments (500 primary objects counted per well; ≥5 wells/sample per each experiment) **p<0.01, ANOVA. […]

mTOR and RagA = assay: Co-IP of FLAG-tagged galectins with endogenous mTOR or RagA in HEK293T cells; format: binding; details: HEK293T overexpressing FLAG-tagged galectins
Method: (A) Analysis of the puncta formation of galectins in response to GPN. HeLa cells overexpressing YFP-fused with the indicated galectins were treated with 100 μM GPN or without (Ctrl) in full medium for 1 h and galectin puncta were quantified by HC. […] White masks, algorithm defined cell boundaries (primary objects); green masks, computer-identified galectins puncta (target objects). Data, means±SEM, n≥3 independent experiments (500 primary objects counted per well; ≥5 wells/sample per each experiment); *p<0.05, **p<0.01, † p≥0.05, ANOVA. (B) Immunoprecipitation analysis of the interactions between galectins and mTOR or RagA GTPase. HEK293T cells overexpressing FLAG-tagged galectins were subjected to anti-FLAG immunoprecipitation followed by immunoblotting for endogenous mTOR or RagA. (C) Immunoprecipitation analysis of interactions between Gal8 and mTOR protein complexes in response to GPN treatment. THP-1 cells not treated or treated with 100 μM GPN in full medium for 1 h were subjected to immunoprecipitation with anti-Gal8 antibody, followed by immunoblotting for endogenous RagA, p14, mTOR or Raptor. […] Biotinylated proteins from HEK293T cell expressing APEX2-vector or APEX2-Gal8, after GPN and biotin phenol (BP) treatment were affinity-enriched by binding to streptavidin-beads, and samples were analyzed by immunoblotting analysis for endogenous RagA, p14, mTOR or Raptor. […]

| Molecule | mTOR activity in primary cells (mTOR) | co-IP with mTOR and RagA (mTOR and RagA) |
| --- | --- | --- |
| NCC(=O)N[C@@H](Cc1ccccc1)C(=O)Nc1ccc2ccccc2c1 [GPN, glycyl-L-phenylalanine 2-naphththylamide] (HELM PEPTIDE1{G.F.[c1ccc2cc(N[*:1])ccc2c1]}$$$$V2.0) | confirmed | – |
| Gal8: protein of the galectin family encoded by the gene LGALS8; beta-galactoside-binding lectin | – | found in co-IPs |
